Source: patent US12311054B2, “Compositions and methods of using propylene sulfide-based polymers for treatment of Chagas disease” (priority 2019, dated 2025)
Like-named read-outs stand apart in the source and are kept apart here.

Columns and labels:
[1] = test system: extracellular T. cruzi developmental stages; details: cited from earlier work
[2] = Assessment of the toxicity of BNZ and BNZ-PS in vivo; parameters: species or system mouse; details: BNZ 100 mg/kg
Method: […] Mice weight was recorded during the treatment course. […] Serums (Sera) were sent out to central lab (IDEXX BioResearch) to measure alanine aminotransferase (ALT/SGPT), aspartate aminotransferase (AST/SGOT), bile acid, bilirubin, blood urea nitrogen (BUN), creatinine, gamma-glutamyltransferase (GGT).

[3] = cited from earlier work
[4] = test system: T. cruzi; assay: IC50 of free vs nanocarrier-loaded Benznidazole (description, stage and strain not stated); format: cell-based; details: Trypanosoma cruzi; free vs loaded in nanocarrier; typical / estimated values
[5] = test system: T. cruzi Y strain infected BALB/c mice; assay: BNZ and BNZ-PS therapy in murine model of acute Chagas disease; format: in vivo, mouse
[6] = test system: T. cruzi-infected patients; details: standard BNZ doses; cited from earlier work
[7] = mice; cited from earlier work
[8] = test system: T. cruzi Tulahuen strain amastigote (Luc-mNeonGreen); assay: Anti-amastigote activity in infected H9C2 cells, bioluminescent quantification, Tulahuen strain; format: cell-based; details: Trypanosoma cruzi, Tulauan strain amastigotes in H9C2 cells, bioluminescence, 48 h
Method: For the evaluation of anti-amastigote activity of T. cruzi Tulahuen strain, 5000 H9C2 cells were seeded in a 96 well clear bottom tissue culture plate (Thermo Scientific). After 24 hours, the culture was infected with Luc-mNeonGreen Tulahuen strain trypomastigotes at a 1:5 host-to-parasite cell ratio for 24 h. […] The medium was replaced every 24 h. At 48 h, 10 μL of 15 mg mL-1 luciferin were added into each well, and the luciferase intensity was measured using a IVIS Spectrum (Caliper Life Science) and the ROI was analyzed with Softmas Pro. Exposure time varied from 5 s to 15 s depending on signal intensity.

[9] = test system: T. cruzi Tulauen strain trypomastigote; assay: Anti-trypomastigote activity, resazurin assay, Tulauen strain; format: cell-based; details: Trypanosoma cruzi, read-out: half-inhibitory concentration (IC50), Tulauan strain trypomastigote
Method: (§1) IC50 for two strains of T. cruzi. The trypancidal effectiveness of BNZ-PS for Y and Tulauen strain was evaluated in vitro using the resarzurin assay (FIG. 2a).
(§2) Resazurin method was used to evaluate in vitro anti-trypanosoma activity against Y trypomastigotes. 1×10^7 trypomastigotes mL^−1 were incubated in 96-well plates containing serial dilution of BNZ and BNZ-PS in RPMI […] medium with 5% FBS, penicillin (100 μL/mL), […] (100 μL/mL) and L-glutamine (2 mM). For BNZ, the stock solution (1024 mM) was prepared in DMSO and made serial dilution to 1024 μM, 512 μM, 256 μM, 128 μM, 64 μM, 32 μM, 16 μM, 8 μM, 4 μM. For BNZ-PS, the stock solution (BNZ 1170 μM) was made serial dilution to 256 μM, 128 μM, 64 μM, 32 μM, 16 μM, 8 μM, 4 μM, 2 μM, 1 μM, 0.5 μM. After incubation for 24 h, at 37° C. and 5% CO2, 10 μL of alamarBlue Cell Viability reagent (Invitrogen) were added in each well, then incubate at 37° C. for 4 h. The fluorescence was measure on a microplate reader (BMG Labtech) at 560/590 nm to evaluate trypomastigote viability. A log concentration vs response curve was generated and the BNZ IC50 was calculated in GraphPad Prism 7.0.

[10] = humans; cited from earlier work
[11] = test system: T. cruzi Y strain amastigote; assay: Anti-amastigote activity in infected H9C2 cells, Giemsa counting, Y strain; format: cell-based; details: Trypanosoma cruzi, Y strain amastigotes in H9C2 cells, 48 h
[12] = test system: T. cruzi Y strain trypomastigote; assay: Anti-trypomastigote activity, resazurin assay, Y strain; format: cell-based; details: Trypanosoma cruzi, 24 h, read-out: half-inhibitory concentration (IC50), Y strain trypomastigote
Method: as §1
The Y strain of T. cruzi was used for all experiments. Epimastigotes were cultured using standard methods and tissue culture amastigotes and trypomastigotes were produced by the addition of log-phase epimastigotes to cultured H9C2 rat myoblast cells, which contain small numbers of metacyclic trypomastigotes capable of initiating mammalian cell infection. After several days of culture in H9C2 cells, amastigotes and trypomastigotes were purified for use in IC50 determination experiments.
as §2, with “For BNZ-PS, the stock solution (BNZ 1170 μM) was made serial dilution to 256 μM, 128 μM, 64 μM, 32 μM, 16 μM, 8 μM, 4 μM, 2 μM, 1 μM, 0.5 μM. After incubation for 24 h, at 37° C. and 5% CO2, 10 μL of alamarBlue Cell Viability reagent (Invitrogen) were added in each well, then incubate at 37° C. for 4 h.” left out

[13] = traditional oral formulation; cited from earlier work

SMILES | activity against extracellular T. cruzi developmental stages [1] | hepatotoxicity, serum ALT ([2]; d21) | body weight during treatment ([2]; BNZ-PS 1.5 or 0.15 mg/kg, 3 weeks) | water solubility [3] | water solubility ([3]; listed as Benznidazole (BNZ)) | IC50 [4] | heart parasitemia (qPCR) ([5]; end of experiment, 25 dpi) | suppression of parasitemia ([5]; infected mice treated from d7, monitored to d25) | patients interrupting treatment due to severe side effects [6] | half-life (t1/2) [7] | IC50 [8] | IC50 [9] | half-life (t1/2) [10] | IC50 [11] | IC50 [12] | fraction of drug bound to plasmatic proteins [13]
C[C@@H]1[C@H](O)[C@@H](C)/C=C/C=C/C=C/C=C/C=C/C=C/C=C/[C@H](O[C@@H]2O[C@H](C)[C@@H](O)[C@H](N)[C@@H]2O)C[C@@H]2O[C@](O)(C[C@@H](O)C[C@@H](O)[C@H](O)CC[C@@H](O)C[C@@H](O)CC(=O)O[C@H]1C)C[C@H](O)[C@H]2C(=O)O [Amphotericin B] | satisfactory |  |  |  |  |  |  |  |  |  |  |  |  |  |  | 
O=C(Cn1ccnc1[N+](=O)[O-])NCc1ccccc1 [BNZ, N-benzyl-2-(2-nitro-1H-imidazol-1-yl)acetamide] |  | show hepatotoxicity as reflected by increased serum ALT | lose weight | practically insoluble in water | poor water solubility | ~33 µM | significantly reduces the heart parasitemia | Effective suppression of parasitemia | 20% | 2 h | 12.5 µM | 12.4 µM | 12 h | 30.1 µM | 55.9 µM | over 40%
